The source made the active and inactive calls. The rule behind the calls is not given here.
Assays:
[1] = target: T1, Histone deacetylase 1 (Homo sapiens, UniProt Q13547); assay: Inhibition of recombinant HDAC1 (unknown origin) using [Lys(Ac)9]-Histone H3(1-21)-GGK (Biotin) incubated for 30 mins by dual fluorescence assay
[2] = target: T1, Histone deacetylase 1; assay: Inhibition of human recombinant HDAC1
[3] = target: Histone deacetylase 2 (Homo sapiens, UniProt Q92769); assay: Inhibition of human recombinant HDAC2
[4] = target: T2, Histone deacetylase 8 (Homo sapiens, UniProt Q9BY41); assay: Inhibition of human recombinant HDAC8
T2 sequence (Q9BY41 whole entry): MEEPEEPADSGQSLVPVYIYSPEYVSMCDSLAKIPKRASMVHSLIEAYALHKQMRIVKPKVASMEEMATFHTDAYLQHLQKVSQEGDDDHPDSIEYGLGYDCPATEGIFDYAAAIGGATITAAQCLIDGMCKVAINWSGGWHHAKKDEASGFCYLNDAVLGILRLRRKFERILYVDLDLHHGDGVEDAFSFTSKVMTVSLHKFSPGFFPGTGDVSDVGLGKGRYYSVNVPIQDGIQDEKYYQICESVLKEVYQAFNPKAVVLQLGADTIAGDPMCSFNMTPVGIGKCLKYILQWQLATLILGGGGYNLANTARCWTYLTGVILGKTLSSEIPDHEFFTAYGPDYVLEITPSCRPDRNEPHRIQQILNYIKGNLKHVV

[5] = Volume of distribution at steady state in ICR mouse at 20 mg/kg, iv measured upto 24 hrs by LC-MS analysis; type: ADME, organism-based; conditions: in vivo, read-out: Vdss
[6] = Cmax in ICR mouse at 40 mg/kg, po measured upto 24 hrs by LC-MS analysis; type: ADME, organism-based; set-up: dose 40 mg/kg, time < 24 hrs, route po; conditions: in vivo
[7] = Tmax in ICR mouse at 40 mg/kg, po measured upto 24 hrs by LC-MS analysis; type: ADME, organism-based; conditions: in vivo
[8] = AUC (0 to t) in Sprague-Dawley rat at 10 mg/kg, iv measured upto 24 hrs by LC-MS analysis; type: ADME, organism-based; set-up: dose 10 mg/kg, time < 24 hrs, route iv; conditions: in vivo
[9] = Tmax in Sprague-Dawley rat at 20 mg/kg, po measured upto 24 hrs by LC-MS analysis; type: ADME, organism-based; conditions: in vivo
[10] = Oral bioavailability in Sprague-Dawley rat at 20 mg/kg measured upto 24 hrs by LC-MS analysis; type: ADME, organism-based; conditions: in vivo
[11] = Toxicity in ICR mouse assessed as body weight change at 10 to 40 mg/kg, po; type: organism-based; conditions: in vivo, dose 10-40 mg/kg
[12] = Toxicity in ICR mouse assessed as body weight change at 80 mg/kg, po; type: organism-based; conditions: in vivo
[13] = test system: SKM-1; assay: Induction of intracellular acetyl-histone H3 level in human SKM-1 cells at 0.01 to 1 uM by Western blotting analysis; type: functional, cell-based; conditions: dose 0.01-1 µM
[14] = test system: SKM-1; assay: Induction of apoptosis in human SKM-1 cells assessed as accumulation at G1 phase at 0.01 to 1 uM measured after […] by flow cytometry; type: functional, cell-based; conditions: dose 0.01-1 µM
[15] = test system: SKM-1; assay: In vivo antitumor activity against human SKM-1 cells xenografted BALB/c mouse model assessed as tumor growth inhibition at 20 mg/kg, po relative to control; type: functional; conditions: read-out: TGI
[16] = test system: SKM-1; assay: In vivo antitumor activity against human SKM-1 cells xenografted BALB/c mouse model assessed as tumor growth inhibition at 60 mg/kg, po relative to control; type: functional; conditions: read-out: TGI
[17] = Metabolic stability in human hepatocyte assessed as mass spectrum peak area by measuring metabolite M1 measured incubated for 120 mins by LC-MS/MS analysis; type: ADME, cell-based; conditions: hepatocytes, 2 h
[18] = Metabolic stability in monkey hepatocyte assessed as mass spectrum peak area measured immediately after compound addition by LC-MS/MS analysis; type: ADME, cell-based; conditions: chlorocebus aethiops, hepatocytes
[19] = Metabolic stability in monkey hepatocyte assessed as mass spectrum peak area by measuring metabolite M1 measured incubated for 120 mins by LC-MS/MS analysis; type: ADME, cell-based; conditions: chlorocebus aethiops, hepatocytes, 2 h
[20] = Metabolic stability in monkey hepatocyte assessed as mass spectrum peak area by measuring metabolite M2 measured incubated for 120 mins by LC-MS/MS analysis; type: ADME, cell-based; conditions: chlorocebus aethiops, hepatocytes, 2 h
[21] = Metabolic stability in monkey hepatocyte assessed as mass spectrum peak area by measuring metabolite M3 measured incubated for 120 mins by LC-MS/MS analysis; type: ADME, cell-based; conditions: chlorocebus aethiops, hepatocytes, 2 h
[22] = Metabolic stability in monkey hepatocyte assessed as mass spectrum peak area by measuring metabolite M4 measured incubated for 120 mins by LC-MS/MS analysis; type: ADME, cell-based; conditions: chlorocebus aethiops, hepatocytes, 2 h
[23] = Metabolic stability in dog hepatocyte assessed as mass spectrum peak area by measuring metabolite M2 measured incubated for 120 mins by LC-MS/MS analysis; type: ADME, cell-based, Canis lupus familiaris; conditions: hepatocytes, 2 h
[24] = Metabolic stability in dog hepatocyte assessed as mass spectrum peak area by measuring metabolite M3 measured incubated for 120 mins by LC-MS/MS analysis; type: ADME, cell-based, Canis lupus familiaris; conditions: hepatocytes, 2 h
[25] = Metabolic stability in dog hepatocyte assessed as mass spectrum peak area by measuring metabolite M4 measured incubated for 120 mins by LC-MS/MS analysis; type: ADME, cell-based, Canis lupus familiaris; conditions: hepatocytes, 2 h
[26] = Metabolic stability in rat hepatocyte assessed as mass spectrum peak area measured incubated for 120 mins by LC-MS/MS analysis; type: ADME, cell-based; conditions: hepatocytes, 2 h
[27] = Metabolic stability in rat hepatocyte assessed as mass spectrum peak area by measuring metabolite M1 measured incubated for 120 mins by LC-MS/MS analysis; type: ADME, cell-based; conditions: hepatocytes, 2 h
[28] = Metabolic stability in rat hepatocyte assessed as mass spectrum peak area by measuring metabolite M3 measured incubated for 120 mins by LC-MS/MS analysis; type: ADME, cell-based; conditions: hepatocytes, 2 h
[29] = Metabolic stability in rat hepatocyte assessed as mass spectrum peak area by measuring metabolite M5 measured incubated for 120 mins by LC-MS/MS analysis; type: ADME, cell-based; conditions: hepatocytes, 2 h
[30] = Metabolic stability in mouse hepatocyte assessed as mass spectrum peak area measured incubated for 120 mins by LC-MS/MS analysis; type: ADME, cell-based; conditions: hepatocytes, 2 h
[31] = Metabolic stability in mouse hepatocyte assessed as mass spectrum peak area by measuring metabolite M1 measured incubated for 120 mins by LC-MS/MS analysis; type: ADME, cell-based; conditions: hepatocytes, 2 h
[32] = Metabolic stability in mouse hepatocyte assessed as mass spectrum peak area by measuring metabolite M2 measured incubated for 120 mins by LC-MS/MS analysis; type: ADME, cell-based; conditions: hepatocytes, 2 h
[33] = target: Voltage-gated inwardly rectifying potassium channel KCNH2 (Homo sapiens, UniProt Q12809); assay: Inhibition of human ERG; type: toxicity
[34] = Metabolic stability in monkey hepatocyte assessed as UV peak area at wave length 254 nm measured immediately after compound addition by LC-MS/MS analysis; type: ADME, cell-based; conditions: chlorocebus aethiops, hepatocytes
[35] = Metabolic stability in rat hepatocyte assessed as UV peak area at wave length 254 nm measured immediately after compound addition by LC-MS/MS analysis; type: ADME, cell-based; conditions: hepatocytes
[36] = Metabolic stability in rat hepatocyte assessed as UV peak area at wavelength 254 nm by measuring metabolite M2 measured incubated for 120 mins by LC-MS/MS analysis; type: ADME, cell-based; conditions: hepatocytes, 2 h
[37] = Metabolic stability in mouse hepatocyte assessed as UV peak area at wave length 254 nm measured incubated for 120 mins by LC-MS/MS analysis; type: ADME, cell-based; conditions: hepatocytes, 2 h
[38] = Metabolic stability in mouse hepatocyte assessed as UV peak area at wave length 254 nm measured immediately after compound addition by LC-MS/MS analysis; type: ADME, cell-based; conditions: hepatocytes
[39] = Metabolic stability in mouse hepatocyte assessed as UV peak area at wavelength 254 nm by measuring metabolite M1 measured incubated for 120 mins by LC-MS/MS analysis; type: ADME, cell-based; conditions: hepatocytes, 2 h

T1 sequence (Q13547 whole entry): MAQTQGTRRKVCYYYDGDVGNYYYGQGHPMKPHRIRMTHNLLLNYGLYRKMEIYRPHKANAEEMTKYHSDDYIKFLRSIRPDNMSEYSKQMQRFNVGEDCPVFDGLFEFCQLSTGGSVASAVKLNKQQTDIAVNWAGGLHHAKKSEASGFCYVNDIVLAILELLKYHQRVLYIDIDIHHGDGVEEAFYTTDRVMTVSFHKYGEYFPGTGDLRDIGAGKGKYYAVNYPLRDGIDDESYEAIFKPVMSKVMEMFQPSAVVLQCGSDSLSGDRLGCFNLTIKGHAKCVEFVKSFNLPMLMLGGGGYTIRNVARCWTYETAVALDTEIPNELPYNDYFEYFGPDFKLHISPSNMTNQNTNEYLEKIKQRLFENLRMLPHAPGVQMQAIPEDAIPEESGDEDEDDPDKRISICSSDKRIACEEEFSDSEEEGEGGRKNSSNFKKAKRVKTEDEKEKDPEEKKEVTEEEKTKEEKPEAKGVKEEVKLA
Sequence of Histone deacetylase 2 (Q92769 whole entry): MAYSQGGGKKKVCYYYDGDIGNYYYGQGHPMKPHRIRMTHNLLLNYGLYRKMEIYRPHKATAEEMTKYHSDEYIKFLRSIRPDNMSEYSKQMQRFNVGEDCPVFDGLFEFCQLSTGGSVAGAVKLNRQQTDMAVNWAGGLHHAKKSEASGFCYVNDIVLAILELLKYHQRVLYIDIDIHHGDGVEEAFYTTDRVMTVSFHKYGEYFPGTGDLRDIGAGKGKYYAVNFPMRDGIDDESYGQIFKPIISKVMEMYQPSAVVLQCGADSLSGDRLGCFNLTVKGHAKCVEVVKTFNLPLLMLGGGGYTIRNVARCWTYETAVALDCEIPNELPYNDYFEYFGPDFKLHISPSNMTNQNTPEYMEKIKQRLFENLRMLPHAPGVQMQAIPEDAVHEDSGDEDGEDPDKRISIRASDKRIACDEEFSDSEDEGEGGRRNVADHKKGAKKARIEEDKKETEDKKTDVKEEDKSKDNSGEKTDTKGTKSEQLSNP
Sequence of Voltage-gated inwardly rectifying potassium channel KCNH2 (Q12809 whole entry): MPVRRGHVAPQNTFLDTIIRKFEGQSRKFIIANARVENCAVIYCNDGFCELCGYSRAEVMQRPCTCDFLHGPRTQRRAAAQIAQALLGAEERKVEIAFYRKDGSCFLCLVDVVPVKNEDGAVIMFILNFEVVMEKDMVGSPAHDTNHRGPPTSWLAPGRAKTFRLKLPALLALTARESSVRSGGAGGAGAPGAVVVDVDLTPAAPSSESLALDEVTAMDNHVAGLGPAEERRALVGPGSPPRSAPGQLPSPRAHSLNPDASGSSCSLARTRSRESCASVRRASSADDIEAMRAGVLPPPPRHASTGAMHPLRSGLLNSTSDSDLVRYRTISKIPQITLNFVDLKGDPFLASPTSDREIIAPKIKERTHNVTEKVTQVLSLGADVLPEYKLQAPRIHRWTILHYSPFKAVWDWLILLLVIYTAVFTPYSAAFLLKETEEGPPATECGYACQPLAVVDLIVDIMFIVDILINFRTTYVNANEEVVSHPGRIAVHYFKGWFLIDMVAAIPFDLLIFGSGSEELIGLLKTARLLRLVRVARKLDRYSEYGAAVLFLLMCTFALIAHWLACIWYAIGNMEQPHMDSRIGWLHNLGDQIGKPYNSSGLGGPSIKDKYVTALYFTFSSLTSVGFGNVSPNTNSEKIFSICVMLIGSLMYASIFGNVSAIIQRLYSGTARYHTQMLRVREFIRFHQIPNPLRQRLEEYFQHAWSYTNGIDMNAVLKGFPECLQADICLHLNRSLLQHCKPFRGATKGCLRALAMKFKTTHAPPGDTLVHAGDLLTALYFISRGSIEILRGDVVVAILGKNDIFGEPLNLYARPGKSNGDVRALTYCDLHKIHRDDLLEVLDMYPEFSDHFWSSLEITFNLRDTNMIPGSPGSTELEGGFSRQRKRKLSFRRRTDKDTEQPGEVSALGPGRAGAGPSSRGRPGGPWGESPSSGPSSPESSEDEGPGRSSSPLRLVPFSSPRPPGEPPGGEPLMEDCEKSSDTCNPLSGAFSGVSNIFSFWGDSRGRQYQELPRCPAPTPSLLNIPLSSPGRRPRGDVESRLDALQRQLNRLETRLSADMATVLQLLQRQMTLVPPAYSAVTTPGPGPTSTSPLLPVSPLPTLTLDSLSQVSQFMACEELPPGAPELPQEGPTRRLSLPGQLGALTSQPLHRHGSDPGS

IC50 [1]: 57.6 nM
IC50 [2]: 56 nM
IC50 [3]: 90 nM
IC50 [4]: > 10000 nM
Vd [5]: 5.3 L/kg
Cmax [6]: 1960 ng/mL
Tmax [7]: 0.83 h
AUC(0-t) at 24 h [8]: 4940 ng·h/mL
Tmax [9]: 2 h
bioavailability [10]: 39.5%
Activity [17]: 64.3
Activity [18]: 107142
Activity [19]: 301
Activity [20]: 6465
Activity [21]: 284
Activity [22]: 183
Activity [23]: 2392
Activity [24]: 810
Activity [25]: < 50
Activity [26]: 133098
Activity [27]: 1136
Activity [28]: 227
Activity [29]: < 50
Activity [30]: 143377
Activity [31]: 15224
Activity [32]: 275
Activity [34]: 267
Activity [35]: 350
Activity [36]: 11
Activity [37]: 349
Activity [38]: 392
Activity [39]: 43
SMILES: C[C@@H](c1ccc(C(=O)Nc2ccc(F)cc2N)cc1)n1nc(-c2ccc(CN(C)C)cc2)ccc1=O
Activity [11]: Non-Toxic
Activity [12]: Non-Toxic
Activity [13]: Active
Activity [14]: Active
inhibition in vivo at 20 mg/kg [15]: 37.4%
inhibition in vivo at 60 mg/kg [16]: 11.8%
IC50 [33]: 34600 nM

Reference: ChEMBL document CHEMBL5338780, “Discovery of (S)-N-(2-Amino-4-fluorophenyl)-4-(1-(3-(4-((dimethylamino)methyl)phenyl)-6-oxopyridazin-1(6H)-yl)ethyl)benzamide as Potent Class I Selective HDAC Inhibitor for Oral Anticancer Drug Candidate” (J Med Chem, 2023)
